Test results from US10624913B2, “Diagnostics and methods for treatment of non-alcoholic hepatic steatosis and hepatic steatohepatitis, and prevention of complications thereof” (VOLANT HOLDINGS GMBH, priority 2011, dated 2020).
Where a name gives a salt, the structure may show the parent alone.

How the values were obtained:
[1] = test system: patients with multiple manifestations of MetS; experiment: Treatment comparison of RYGB, Brake or atorvastatin (Lipitor), each added to standard of care (Example 3); format: in vivo, human; conditions: for LDL percent change: from baseline
Source text: FIG. 20. […] All patients were given 10 gm Brake™ once Daily, orally, 4 hrs prior to their main meal Pertinent demographic and clinical data were retrieved from medical records for all patients, and shown in FIG. 21. Variables included age, gender, body weight, lipid panel (low-density lipoprotein [LDL], high-density lipoprotein [HDL], triglycerides [TG], and total cholesterol [TC]), HbA1c, and liver function tests (aspartate aminotransferase [AST] and alanine aminotransferase [ALT]). Patients were followed monthly for up to one year to assess changes in the above stated variables. […] From the beginning, the patients who began the study with abnormal findings were separated from the patients with initially normal values and those with abnormal findings were further analyzed to define the magnitude of change as well as the percent change from baseline pre-therapy. Descriptive statistics were used in analyzing the baseline characteristics of each cohort. In addition to counts of how many patients had values above threshold, all descriptive characteristics are reported for each group as percentages and mean values, or where appropriate, the binary distribution percentages. […] This testing was applied to case and control cohorts: (a) using data for all treated patients, (b) using data for only those with abnormal range baselines (c) using cases where the initial value was within the normal range for the laboratory. Data were subsequently analyzed for percent change by biomarker from both of these two perspectives. Comparisons between groups were performed by mixed analysis of variances with a post hoc correction for multiple comparisons to analyze differences between treatments. Data are presented as mean±standard deviation (unless otherwise specified). A p<0.05 was considered evidence of significant change. All statistical analyses were conducted using SAS version 9.4 (SAS institute, Cary, N.C.).

[2] = test system: Hepatitis C virus; experiment: Hepatitis C patient cases: viral load; format: in vivo, human; conditions: Patient E1 on combination; words
Procedure: Case 1: A Hepatitis C Patient with Moderate Viral Load Treated with Brake™ Alone, with the Goal to Evaluate the Secondary Antiviral Impact of Improving the Hepatic Steatosis
Patient M1 was a person with a normal BMI.
They were not on Hepatitis C treatment since 2007; no antiviral drugs in the 3 years prior to Brake™ therapy. Treatment Course: Aphoeline Brake™ (formulation II) was added to their treatment at their second visit.
A Hepatitis C Patient with Combination Treatment of Brake™ and pegIFN/Riba, a Test of the Ability of Combinations to Reduce Viral Load Over that of pegIFN/Riba Alone
After two months with only moderate viral load response to this increased dosage, the patient had the addition of 10 gm per day of Aphoeline Brake™ added to their maximal dose pegIFN/Riba regimen.
Case 3: A Hepatitis C Patient with Advanced Cirrhosis, Treated with Brake™ Alone, a Test of the Ability to Control Hepatic Steatosis in the Face of Minimal Action on the Viral Load
Patient L1 is a Overweight (5′3″ 202 lb) but not overtly T2D […] with Hepatitis C genotype 1a since ˜2002. They had previously been treated with pegIFN/Riba but had been considered a failure in 2005. They have been untreated for Hepatitis C since that time. […] Their bilirubin was 1.5 when seen and they were on the liver transplant list. Their chronic medications included spironolactone, rifaximin, and nexium. […]

[3] = test system: metabolic syndrome / cardiovascular risk (FS index, CV index); experiment: Cross comparison of FS index and CV index in treated patients (Example 2); format: in vivo, human; conditions: before, at 6 and 12 months, added to SoC; words
Procedure: Here we compare the same patients using FS index and CV index, in order to establish concordance in the risk scoring. We also include patients with MIs as examples of patients with CV events. For each of these patients, the FS index was calculated and the CV index was calculated, using an electronic spreadsheet designed for this purpose, and with the goal to evaluate concordance in the risk scoring. We also include patients with MIs as examples of patients with CV events.
To assess changes in metabolic syndrome, patient characteristics were analyzed using the FS Index.(44) Briefly, the FS index is a method for assessing cardiovascular risk associated with the glucose supply side in metabolic syndrome and T2D patients. The FS index is obtained from the individual patient's biological parameters, wherein a FS index value of greater than 60 is indicative that the individual is in need of therapy for metabolic syndrome or at risk for at least one cardiovascular complication associated with metabolic syndrome.

[4] = test system: ileal brake (PYY, motilin); conditions: ileal infusions in different amounts; words; cited from earlier work
[5] = test system: patients with incident AF; experiment: Longitudinal cohort study of atrial fibrillation patients with or without warfarin; format: in vivo, human; conditions: adjusted for age and CHADS2; 95% CI 0.85, 2.13; not statistically significant
Procedure: We performed a longitudinal, cohort study with pharmacy and medical claims from 1997 to 2008 from a local health maintenance organization. Participants were identified with incident AF irrespective of warfarin status and followed through their duration within the database. Three clinical outcome measures were assessed including stroke, myocardial infarction, and bleeding. A neural net model was developed to identify patients at high risk of clinical event and defined to be an ‘enriched’ patient. The model defines the enrichment based on the top 10 minimum mean square error (MMSE) output parameters that describe the three clinical outcomes. The MMSE ranks the parameters in order from best to worst predictability when modeling the outputs. Predictors and outcome measures were ascertained with cox proportional hazards models.

[6] = decline from pre-treatment baseline, added to SoC, FIG. 21

CC(C)c1c(C(=O)Nc2ccccc2)c(-c2ccccc2)c(-c2ccc(F)cc2)n1CC[C@@H](O)C[C@@H](O)CC(=O)O (relative stereo) [atorvastatin, [R—(R*,R*)]-2-(4-fluorophenyl)-β,δ-dihydroxy-5-(l-methylethyl)-3-phenyl-4-[(phenylamino)-carbonyl]-1H-pyrrole-1-heptanoic acid; calcium salt (2:1) trihydrate]
Total cholesterol decline ([1]; abnormal baseline cases, 6 and 12 months of treatment): 3.2% | Body weight decline ([1]; at 12 months): 2.6% | ALT decline [1, 6]: essentially no decline | AST decline [1, 6]: 3.5% | Triglyceride concentration decline [1, 6]: 18% | HDL values ([1]; high dose (40 mg) atorvastatin alone, words): decreased | LDL percent change ([1]; high dose (40 mg) atorvastatin, FIG. 21): −22.7% | LDL percent change ([1]; low dose atorvastatin, FIG. 21): −10.1% | HDL values ([1]; low dose atorvastatin, words): increased | Changes baseline to post treatment in triglycerides ([1]; words): negligible | Changes in ALT and AST over pre treatment baseline ([1]; words, atorvastatin 10 mg or 40 mg): Only minor changes

COc1cc(/C=C/C(=O)CC(=O)/C=C/c2ccc(O)c(OC)c2)ccc1O [curcumin]
Hepatitis C virus status / control of viral load [2]: loss of control for viral load

CN(C)C(=N)N=C(N)N [metformin]
Changes in FS index over pre-treatment baseline [3]: did not change the FS index

CCCCCCCC/C=C\CCCCCCCC(=O)O [oleic acid]
PYY levels [4]: dose-dependent increase | motilin levels [4]: borderline decrease

CC(=O)CC(c1ccccc1)c1c(O)c2ccccc2oc1=O (stereo not shown) [warfarin]
risk of negative clinical outcomes (aHR) [5]: 1.35
